Literature values, collected in patent US20120178700A1, “PEPTIDOMIMETIC MACROCYCLES” (Aileron Therapeutics, Inc., priority 2008, published 2012).

What was measured:
c-Myc/Max dimerization = c-Myc/Max dimerization (Homo sapiens, UniProt P01106); details: for preference for inhibition of c-Myc/Max association over related transcription factors: in the presence of their DNA binding motif in vitro
[1] = system: c-Myc-dependent oncogenic transformation; details: versus transformation dependent on Jun

Sequence of c-Myc/Max dimerization (P01106 whole entry): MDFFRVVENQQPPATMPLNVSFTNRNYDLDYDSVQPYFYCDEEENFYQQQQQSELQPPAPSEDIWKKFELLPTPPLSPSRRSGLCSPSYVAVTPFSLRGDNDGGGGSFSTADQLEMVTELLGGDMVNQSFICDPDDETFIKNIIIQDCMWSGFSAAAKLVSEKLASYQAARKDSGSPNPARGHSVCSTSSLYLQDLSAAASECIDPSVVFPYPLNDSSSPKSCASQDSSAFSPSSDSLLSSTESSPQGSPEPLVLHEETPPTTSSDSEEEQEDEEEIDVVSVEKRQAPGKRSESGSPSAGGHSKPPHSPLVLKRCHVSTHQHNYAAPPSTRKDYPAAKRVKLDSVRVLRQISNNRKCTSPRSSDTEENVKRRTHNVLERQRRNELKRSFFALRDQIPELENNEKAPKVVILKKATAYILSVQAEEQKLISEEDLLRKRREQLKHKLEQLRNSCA

Question: For CN(C)CCCNc1cc(O)c2c(c1O)C(=O)c1ccccc1C2=O [MYRA-A], which c-Myc/Max dimerization (c-Myc/Max dimerization) is on record?
Answer: without interfering

Question: And the “inhibition of DNA binding of Myc family proteins” value (Myc family proteins)?
Answer: inhibit DNA binding

Question: For COc1ccc(CNC(=O)c2cc3nc(-c4cccs4)cc(C(F)(F)F)n3n2)cc1 [Mycro1], which “preference for inhibition of c-Myc/Max association over related transcription factors” value (c-Myc/Max dimerization) is on record?
Answer: show a preference

Question: For O=C(NCc1cccs1)c1cc2nc(-c3cccs3)cc(C(F)(F)F)n2n1 [Mycro2], which “preference for inhibition of c-Myc/Max association over related transcription factors” value (c-Myc/Max dimerization) is on record?
Answer: show a preference

Question: For COc1ccc(CN(C(=O)c2ccccn2)C(C(=O)NC2CCCCC2)c2ccc3cc(OCC(=O)OC(C)(C)C)ccc3c2)cc1 (centres unmarked) [NY2267], which “inhibition of c-Myc-dependent oncogenic transformation” value [1] is on record?
Answer: inhibited c-Myc-dependent oncogenic transformation with preference over transformation dependent on Jun
